Measurements taken from US8853271B2, “Method for inhibiting activity and/or expression of matrix metalloproteinase, inhibiting phosphorylation of mitogen-activated protein kinase, and/or promoting expression of collagen using tormentic acid” (China Medical University, priority 2010, dated 2014).

Assays:
[1] = test system: bacterial matrix metalloproteinase; assay: Decomposition test of gelatin (inhibition of matrix metalloproteinase activity); assay type: biochemical
Method: (§1) In addition to collagen decomposing, matrix metalloproteinase (collagenase) has the effect of gelatin decomposing. The property of the fluorescence generation of decomposed gelatin and decomposed commercial substrates of collagenase (purchased from Calbiochem, la Jolla, […]) was used in this example to evaluate the inhibitory effect of tormentic acid on the matrix metalloproteinase.
A 50 μl buffer solution (pH 7.8, contained 50 mM Tris-HCl, 10 mM calcium chloride, and 0.15 M sodium chloride), 30 μl sterile water, and 10 μl bacterial matrix metalloproteinase (0.1 mg/ml, Sigma) were added into an eppendorf tube, and then a 10 μl solution of tormentic acid ([…]) or doxycycline as the positive control was added into the eppendorf tube. The mixture was well mixed, and incubated at room temperature for 60 minutes.
The mixture (30 μl) was drawn and dropped on a circular filter paper covering a gelatin culture medium, and then the filter paper along with the medium was placed into an incubator under 37° C. After incubating for 18 hours, the filter paper was removed. The culture medium was stained with a Coomassie Blue R-250 staining solution (purchased from Amresco company, America), and then was destained with a destaining solution. Because gelatin decomposed by matrix metalloproteinase will not be stained by the Coomassie Blue staining solution, the transparency of the culture medium may reveal the activity of the matrix metalloproteinase. After the culture medium was photographed, the picture was analyzed by an image analysis software (AlphaDigiDoc 1201, purchased from Alpha Innotech Co., America) to calculate the inhibition rate of tormentic acid on the activity of gelatin decomposition of the matrix metalloproteinase.

[2] = test system: matrix metalloproteinase (collagenase, Sigma); assay: Fluorogenic substrate test (collagenase substrate III); assay type: biochemical
From the text: as §1
A specific amount of a solution of the collagenase substrate III (Mcc-Pro-Leu-Gly-Pro-D-Lys (DNP)—OH, purchased from Calbiochem, la Jolla, […]), a matrix metalloproteinase (collagenase, Sigma) solution, tormentic acid or doxycycline as the positive control were mixed and added to a 96 well plate. Then, an ELISA reader was used to determine the […] (405 nm), respectively. The results are shown in Table 2 and FIG. 3, wherein ΔF is the fluorescence value that the basic fluorescence value at time zero has been deducted.

[3] = test system: WS1 human skin dermal fibroblasts; assay: Test of cell survival rate (MTS assay) under UV exposure; assay type: cell-based; conditions: for absorption value (MTS, 490 nm) / survival rate (%): UV 90 mJ/cm^2, 24 hours; for death of the cells (in words): 90 mJ/cm^2 UV
Method: The following experiment was carried out by using WS1 human skin dermal fibroblasts (purchased from Food Industry Research and Development Institute, Taiwan). Under exposure to the ultraviolet ray (UV) with the intensity range from 0 mJ/cm^2 to 120 mJ/cm^2, it will not cause death to WS1 human skin dermal fibroblasts. Thus, this experiment was carried out at the UV intensity of 90 mJ/cm^2. First, tormentic acid of various concentrations (0, 0.1, 1.0, 2.0, or 10 μg/ml) was added to a culture medium (comprising α-minimum essential medium, 10% heat-inactivated Fetal Bovine Serum, 100 U/ml penicillin, and 100 μg/ml Streptomycin) containing the WS1 human skin dermal fibroblasts. After the cells were cultured for 24 hours, an MTS (3-(4,5-di-methylthiazol-2-yl)-5-(3-carboxymethoxy phenyl)-2-(4-sulfophenyl)-2H-tetrazolium, commercially available from Promega, Madison, Wis., America) assay was carried out to observe the cell survival rate, and the results are shown in Table 3. The mechanism of the MTS assay is as follows: the dehydrogenase activity of living cells can reduce MTS to a water soluble product that is red purple in color, which has a maximum absorption at a wavelength of 490 nm, and thus, the cell survival rate can be evaluated by absorption values.

[4] = test system: matrix metalloproteinase-1; assay: Western blotting of matrix metalloproteinase-1 in UV-exposed fibroblasts; assay type: cell-based, human; conditions: WS1 fibroblasts exposed to UV for 24 hours, treated for 1 hour before collection
c-Jun = assay: Western blotting of AP-1 subunit c-Jun in the nucleus; assay type: cell-based, human; conditions: WS1 fibroblasts exposed to UV for 24 hours, treated for 1 hour before collection
From the text: (§2) The UV exposure of cells induces JNK and p38 to activate c-Jun, which then enters into the nucleus. Then, c-Fos translocates into the nucleus under the regulation of ERK and p38. A c-Jun subunit combines with a c-Fos subunit to form an activator protein 1 (AP-1) gene transcription factor, which then participates in gene expression to promote the transcription of message RNA (mRNA) of matrix metalloproteinase-1 (MMP-1) and reduces the gene expression of procollagen-Iα1 (procollagen α1 of Type I collagen). Thus, a western blotting assay was carried out in this experiment to further observe the protein expression of AP-1 in the nucleus, and the result is shown in FIG. 6. After the WS1 human skin dermal fibroblasts were exposed to UV rays for 24 hours, the expression level of c-Jun and c-Fos in the nucleus were increased. However, when the cells were treated with tormentic acid for 1 hour before collection, the expression of c-Jun and c-Fos were inhibited.

c-Fos = assay: Western blotting of AP-1 subunit c-Fos in the nucleus; assay type: cell-based, human; conditions: WS1 fibroblasts exposed to UV for 24 hours, treated for 1 hour before collection
From the text: as §2

p38 protein = assay: Western blotting of phosphorylated p38 in UV-exposed fibroblasts; assay type: cell-based, human; conditions: WS1 fibroblasts exposed to UV for 24 hours, treated for 1 hour before collection
Method: (§3) The skin “photo-aging” caused by ultraviolet rays may lead to an increase of matrix metalloproteinase in the dermis via the phosphorylation of the mitogen-activated protein kinase (MAPK), and thus a western blotting assay was also carried out in this experiment to observe the effect of tormentic acid on the phosphorylation of mitogen-activated protein kinase in cells; the result is shown in FIG. 5.
(§4) However, when the cells were treated with tormentic acid for 1 hour before collection, the phosphorylation of JNK, ERK, and p38 can be inhibited.

[5] = test system: extracellular signal-regulated protein kinase (ERK); assay: Western blotting of phosphorylated ERK in UV-exposed fibroblasts; assay type: cell-based, human; conditions: WS1 fibroblasts exposed to UV for 24 hours, treated for 1 hour before collection
Method: as §3, §4

[6] = test system: c-Jun N-terminal Kinase (JNK); assay: Western blotting of phosphorylated JNK in UV-exposed fibroblasts; assay type: cell-based, human; conditions: WS1 fibroblasts exposed to UV for 24 hours, treated for 1 hour before collection
Method: as §3, §4

procollagen-1 = assay: Western blotting of procollagen-1 in UV-exposed fibroblasts; assay type: cell-based, human; conditions: WS1 fibroblasts exposed to UV for 24 hours, treated for 1 hour before collection

C[C@@H]1CC[C@]2(C(=O)O)CC[C@]3(C)C(=CC[C@@H]4[C@@]5(C)C[C@@H](O)[C@H](O)C(C)(C)[C@@H]5CC[C@]43C)[C@@H]2[C@]1(C)O [tormentic acid]
Inhibition rate (%) of gelatin decomposing activity ([1]; 25 μg/ml): 3.7%
Inhibition rate (%) of gelatin decomposing activity ([1]; 50 μg/ml): 24.0%
Inhibition rate (%) of gelatin decomposing activity ([1]; 100 μg/ml): 62.7%
Inhibition rate (%) of gelatin decomposing activity ([1]; 200 μg/ml): 75.3%
activity of gelatin decomposition of the matrix metalloproteinase (in words) ([1]; 25-200 μg/ml): significantly inhibited
generation of fluorescence from collagenase substrate III (in words) [2]: can reduce the generation of fluorescence
Inhibition rate (collagenase substrate III decomposition) ([2]; 50 μg/ml): (39%)
ΔF (fluorescence value, time-zero value deducted) ([2]; 50 μg/ml): 54.8 ± 8.4
Inhibition rate (collagenase substrate III decomposition) ([2]; 100 μg/ml): (44.7%)
ΔF (fluorescence value, time-zero value deducted) ([2]; 100 μg/ml): 49.8 ± 7.2
Inhibition rate (collagenase substrate III decomposition) ([2]; 250 μg/ml): (79.1%)
ΔF (fluorescence value, time-zero value deducted) ([2]; 250 μg/ml): 18.8 ± 10.8
absorption value (MTS, 490 nm) ([3]; 0.1 μg/ml): 1.08 ± 0.95
survival rate (%) ([3]; 0.1 μg/ml): 103.8%
absorption value (MTS, 490 nm) ([3]; 1.0 μg/ml): 1.10 ± 0.97
survival rate (%) ([3]; 1.0 μg/ml): 105.8%
absorption value (MTS, 490 nm) ([3]; 2.0 μg/ml): 1.10 ± 0.98
survival rate (%) ([3]; 2.0 μg/ml): 105.8%
absorption value (MTS, 490 nm) ([3]; 10.0 μg/ml): 0.83 ± 0.70
survival rate (%) ([3]; 10.0 μg/ml): 79.8%
death of the cells (in words) ([3]; concentration of 10 μg/ml): caused the death of the cells
death of the cells (in words) ([3]; concentration of lower than 2 μg/ml): did not cause the death of the cells
cytotoxicity (in words) ([3]; low concentration): no cytotoxicity
expression of matrix metalloproteinase-1 [4]: inhibited
expression of c-Jun in the nucleus (c-Jun): inhibited
expression of c-Fos in the nucleus (c-Fos): inhibited
phosphorylation of p38 (p38 protein): inhibited
phosphorylation of ERK [5]: inhibited
phosphorylation of JNK [6]: inhibited
expression of procollagen-1 (procollagen-1): increased
